Results: patent publication US20160238590A1, “COMPOSITIONS AND METHODS RELATED TO OAT SENSITIVITY” (IMMUSANT, INC., priority 2013, published 2016)
[ ]: non-standard residue; d: D form. pGlu = O=C1CC[C@@H](C(=O)O)N1

Experiments:
Assay type in all cases: cell-based, human
PBMC [1] = experiment: IFN-γ ELISpot on PBMC of CD patients after 3-day barley challenge; conditions: for response following barley challenge: 3 oats responders, titrating concentrations (FIG. 1b); for patients responding following pure barley challenge: 3 patients that had previously responded to avenin peptides following oats challenge; for responses compared with DQ2.5-ave-1c responses: third patient; for responses compared with DQ2.5-ave-1c responses / responses compared with DQ2.5-hor-3a responses: after barley challenge (FIG. 1b); for responses compared with DQ2.5-hor-3a responses: 2/3 patients
In short: (§1)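 PBMC from HLA-DQ2.5+/DQ8+ biopsy-proven coeliac patients on gluten-free diet ≥4 weeks, collected on day 6 after starting a 3-day oral challenge (oats 100 g/day, barley 150 g/day, or wheat/barley/rye muffins 22-25 g each daily). Responses to avenin, hordein and gluten peptide libraries, some deamidated or tTG-treated, measured by IFN-γ ELISpot.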

Patient 2 TCC-03 = experiment: IFN-γ ELISpot with T cell clone; conditions: TCC Patient 2 TCC-03, peptide 25 μg/mL
In short: (§2)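 T cell clones from coeliac patients were derived by single-cell sorting of CFSE-labeled PBMC that proliferated after 7 days with antigen in IMDM plus 5% pooled human serum. Clones were expanded with IL-2 and IL-4, and IFN-γ ELISpot tested their specificity using irradiated HLA-matched PBMC as antigen-presenting cells.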

Patient 2 TCC-01 = experiment: IFN-γ ELISpot with T cell clone
In short: as §2

Patient 8 TCC-01 = experiment: IFN-γ ELISpot with T cell clone; conditions: TCC Patient 8 TCC-01, peptide 25 μg/mL
In short: as §2

Patient 2 TCC-02 = experiment: IFN-γ ELISpot with T cell clone; conditions: TCC Patient 2 TCC-02, peptide 25 μg/mL
In short: as §2

Patient 9 TCC-01 = experiment: IFN-γ ELISpot with T cell clone; conditions: TCC Patient 9 TCC-01, peptide 50 μg/mL
In short: as §2

Patient 14 TCC-01 = experiment: IFN-γ ELISpot with T cell clone; conditions: TCC Patient 14 TCC-01, peptide 50 μg/mL
In short: as §2

Patient 6 TCC-01 = experiment: IFN-γ ELISpot with T cell clone
In short: as §2

Patient 9 TCC-02 = experiment: IFN-γ ELISpot with T cell clone; conditions: TCC Patient 9 TCC-02, peptide 50 μg/mL
In short: as §2

Patient 10 TCC-01 = experiment: IFN-γ ELISpot with T cell clone; conditions: TCC Patient 10 TCC-01, peptide 50 μg/mL
In short: as §2

PBMC [2] = experiment: IFN-γ ELISpot on PBMC of CD patients after combined wheat, barley, and rye challenge
Description: Australian Caucasian HLA-DQ2.5^+ and/or HLA-DQ8^+ CD subjects were recruited by advertisement in the Coeliac Society of Victoria newsletter and all had biopsy-proven CD conforming to ESPGHAN criteria. Patients had been on strict gluten free diet for at least 4 weeks prior to commencing grain challenge. Patients underwent 3-day grain challenge with oats, barley, or combined wheat, barley, and rye muffins, and 6 days after commencement, blood was collected. Day 0 responses were not observed in the selection of patients tested, as described previously^8.
Oats challenge consisted of 100 g dry weight daily of one of three commercial brands of oats: one not tested for wheat contamination (Uncle Toby's; Oats #1), and two shown by R5 ELISA to contain less than 20 ppm wheat gluten (Tilquhilie Pudding; Oats #2 and Freedom Food; Oats #3). Barley challenge consisted of pearl barley (Ward McKenzie) cooked into a risotto (150 g dry weight daily) and the wheat challenge consisted of four 50 g slices of wheat bread daily (Baker's Delight white loaf cut to toasting thickness). The combined wheat, barley, and rye challenge consisted of muffins baked with wheat flour (White Wings), barley flour (Four Leaf Milling), and rye flour (Four Leaf Milling; 22-25 g dry weight each daily). A symptom diary based on a […] Likert scale was completed by participants daily from baseline until day 6.
Two avenin peptide libraries were utilized for epitope screening. These were designed using avenin sequences from GenBank and a customized algorithm, as previously described^9. The initial library consisted of 199 screening-grade 20 mers including all possible 12 mers (Mimotopes). This library was screened with and without tTG pre-treatment. The second library consisted of additional avenin sequences that were synthesized with glutamate substitution at sites predicted to be deamidated by published algorithms^10, 11 removing the requirement for tTG treatment. This library contained 369 screening-grade 20 mers, including all possible 12 mers (Pepscan). The second round avenin library contained wild-type and deamidated versions of the most immunogenic sequences (25 high quality 16 mers from Mimotopes). High quality peptides containing previously described immunogenic sequences from wheat, barley, and rye were used to test for cross-reactivity^8 (Pepscan). High quality hordein and avenin peptides for TCC testing and biochemical studies were ordered from Pepscan, Mimotopes, or GL Biochem.
Peripheral blood mononuclear cells (PBMC) were isolated from heparinized whole blood using Ficoll-Paque™ Plus density-gradient centrifugation (GE Healthcare). IFN-γ ELISpot (Mabtech) was set up as previously described^8.

PBMC [3] = experiment: IFN-γ ELISpot on PBMC of CD patients on day 6 after 3-day oats challenge
In short: as §1

[4] = Patient 1, peptide 25 μg/ml, after barley challenge
[5] = Patient 2, peptide 25 μg/ml, after barley challenge
[6] = Patient 3, peptide 25 μg/ml, after barley challenge
[7] = TCC Patient 2 TCC-01, peptide 25 μg/mL
[8] = TCC Patient 2 TCC-01, peptide 50 μg/mL
[9] = TCC Patient 6 TCC-01, peptide 25 μg/mL
[10] = TCC Patient 6 TCC-01, peptide 50 μg/mL
[11] = 19 HLA-DQ2.5+ CD patients, peptide 10 μg/mL (FIG. 1a)

Sequence: PEQPIPEQPQPYPQQ
- response following barley challenge (PBMC [1]): responded to all three peptides to varying degrees
- patients responding following pure barley challenge (PBMC [1]): All three patients responded
- IFN-γ ELISpot response (raw SFU) (PBMC [1]; [4]): 317 SFU
- significant SFU as a percentage of maximal peptide SFU (PBMC [1]; [4]): *** (***: >70%)
- IFN-γ ELISpot response (raw SFU) (PBMC [1]; [5]): 162 SFU
- significant SFU as a percentage of maximal peptide SFU (PBMC [1]; [5]): *** (***: >70%)
- IFN-γ ELISpot response (raw SFU) (PBMC [1]; [6]): 142 SFU
- significant SFU as a percentage of maximal peptide SFU (PBMC [1]; [6]): *** (***: >70%)
- responses compared with DQ2.5-ave-1c responses (PBMC [1]): slightly lower
- IFN-γ ELISpot response (SFU) (Patient 2 TCC-03): 156 SFU
- significant SFU as a percentage of maximal peptide SFU (Patient 2 TCC-03): *** (***: >70%)
- IFN-γ ELISpot response (SFU) (Patient 2 TCC-01; [7]): 1 SFU
- IFN-γ ELISpot response (raw SFU) (Patient 2 TCC-01; [8]): 1 SFU
- IFN-γ ELISpot response (SFU) (Patient 8 TCC-01): 143 SFU
- significant SFU as a percentage of maximal peptide SFU (Patient 8 TCC-01): *** (***: >70%)
- IFN-γ ELISpot response (SFU) (Patient 2 TCC-02): 1 SFU
- IFN-γ ELISpot response (raw SFU) (Patient 9 TCC-01): 4 SFU
- IFN-γ ELISpot response (raw SFU) (Patient 14 TCC-01): 48 SFU
- significant SFU as a percentage of maximal peptide SFU (Patient 14 TCC-01): ** (**: 40-70%)
- IFN-γ ELISpot response (SFU) (Patient 6 TCC-01; [9]): 107 SFU
- significant SFU as a percentage of maximal peptide SFU (Patient 6 TCC-01; [9]): *** (***: >70%)
- IFN-γ ELISpot response (raw SFU) (Patient 6 TCC-01; [10]): 86 SFU
- significant SFU as a percentage of maximal peptide SFU (Patient 6 TCC-01; [10]): *** (***: >70%)
- IFN-γ ELISpot response (raw SFU) (Patient 9 TCC-02): 2 SFU
- IFN-γ ELISpot response (raw SFU) (Patient 10 TCC-01): 3 SFU
- patients that did not respond to either peptide (PBMC [2]; [11]): 9 patients
- patients that responded to both peptides (PBMC [2]; [11]): 8 patients
- patients that responded to the hordein peptide but not the avenin peptide (PBMC [2]; [11]): 2 patients
- responses compared with AAB32025 (7-21) [Q7 to pyroE, Q15 to E, and Q21 to Q-amide] responses (PBMC [2]; combined wheat, barley, and rye challenge): generally higher

Sequence: QPQPYPEQPQPYP ([pGlu]PQPYPEQPQPYP-NH2; SMILES NC(=O)CC[C@H](NC(=O)[C@H](CCC(=O)O)NC(=O)[C@@H]1CCCN1C(=O)[C@H](Cc1ccc(O)cc1)NC(=O)[C@@H]1CCCN1C(=O)[C@H](CCC(N)=O)NC(=O)[C@@H]1CCCN1C(=O)[C@@H]1CCC(=O)N1)C(=O)N1CCC[C@H]1C(=O)N[C@@H](CCC(N)=O)C(=O)N1CCC[C@H]1C(=O)N[C@@H](Cc1ccc(O)cc1)C(=O)N1CCC[C@H]1C(N)=O)
- responses compared with DQ2.5-hor-3a responses (PBMC [1]): almost equivalent
- response following barley challenge (PBMC [1]): responded to all three peptides to varying degrees
- responses compared with DQ2.5-ave-1c responses (PBMC [1]): equivalent
- IFN-γ ELISpot response (SFU) (Patient 2 TCC-03): 132 SFU
- significant SFU as a percentage of maximal peptide SFU (Patient 2 TCC-03): *** (***: >70%)
- IFN-γ ELISpot response (SFU) (Patient 2 TCC-01; [7]): 232 SFU
- significant SFU as a percentage of maximal peptide SFU (Patient 2 TCC-01; [7]): *** (***: >70%)
- IFN-γ ELISpot response (raw SFU) (Patient 2 TCC-01; [8]): 316 SFU
- significant SFU as a percentage of maximal peptide SFU (Patient 2 TCC-01; [8]): *** (***: >70%)
- IFN-γ ELISpot response (SFU) (Patient 8 TCC-01): 175 SFU
- significant SFU as a percentage of maximal peptide SFU (Patient 8 TCC-01): *** (***: >70%)
- IFN-γ ELISpot response (SFU) (Patient 2 TCC-02): 1 SFU
- IFN-γ ELISpot response (raw SFU) (Patient 9 TCC-01): 1 SFU
- IFN-γ ELISpot response (raw SFU) (Patient 14 TCC-01): 27 SFU
- significant SFU as a percentage of maximal peptide SFU (Patient 14 TCC-01): * (*: 20-40%)
- IFN-γ ELISpot response (SFU) (Patient 6 TCC-01; [9]): 86 SFU
- significant SFU as a percentage of maximal peptide SFU (Patient 6 TCC-01; [9]): *** (***: >70%)
- IFN-γ ELISpot response (raw SFU) (Patient 6 TCC-01; [10]): 52 SFU
- significant SFU as a percentage of maximal peptide SFU (Patient 6 TCC-01; [10]): ** (**: 40-70%)
- IFN-γ ELISpot response (raw SFU) (Patient 9 TCC-02): 0 SFU
- IFN-γ ELISpot response (raw SFU) (Patient 10 TCC-01): 3 SFU

Sequence: YQPYPEQEQPILQQ
- responses compared with DQ2.5-hor-3a responses (PBMC [1]): lower
- response following barley challenge (PBMC [1]): responded to all three peptides to varying degrees
- patients responding following pure barley challenge (PBMC [1]): All three patients responded
- IFN-γ ELISpot response (raw SFU) (PBMC [1]; [4]): 59 SFU
- significant SFU as a percentage of maximal peptide SFU (PBMC [1]; [4]): ^^ (^^: 10-20%)
- IFN-γ ELISpot response (raw SFU) (PBMC [1]; [5]): 204.5 SFU
- significant SFU as a percentage of maximal peptide SFU (PBMC [1]; [5]): *** (***: >70%)
- IFN-γ ELISpot response (raw SFU) (PBMC [1]; [6]): 26 SFU
- significant SFU as a percentage of maximal peptide SFU (PBMC [1]; [6]): ^^ (^^: 10-20%)
- patients with lower polyclonal T cell responses compared with 1103203A (31-45) peptide (PBMC [1]; after barley challenge): 2/3
- IFN-γ ELISpot response (SFU) (Patient 2 TCC-03): 1 SFU
- IFN-γ ELISpot response (SFU) (Patient 2 TCC-01; [7]): 238 SFU
- significant SFU as a percentage of maximal peptide SFU (Patient 2 TCC-01; [7]): *** (***: >70%)
- IFN-γ ELISpot response (raw SFU) (Patient 2 TCC-01; [8]): 300 SFU
- significant SFU as a percentage of maximal peptide SFU (Patient 2 TCC-01; [8]): *** (***: >70%)
- IFN-γ ELISpot response (SFU) (Patient 8 TCC-01): 114 SFU
- significant SFU as a percentage of maximal peptide SFU (Patient 8 TCC-01): ** (**: 40-70%)
- IFN-γ ELISpot response (SFU) (Patient 2 TCC-02): 145 SFU
- significant SFU as a percentage of maximal peptide SFU (Patient 2 TCC-02): ** (**: 40-70%)
- IFN-γ ELISpot response (raw SFU) (Patient 9 TCC-01): 4 SFU
- IFN-γ ELISpot response (raw SFU) (Patient 14 TCC-01): 18 SFU
- IFN-γ ELISpot response (SFU) (Patient 6 TCC-01; [9]): 3 SFU
- IFN-γ ELISpot response (raw SFU) (Patient 6 TCC-01; [10]): 2 SFU
- IFN-γ ELISpot response (raw SFU) (Patient 9 TCC-02): 2 SFU
- IFN-γ ELISpot response (raw SFU) (Patient 10 TCC-01): 5 SFU
- patients that did not respond to either peptide (PBMC [2]; [11]): 9 patients
- patients that responded to both peptides (PBMC [2]; [11]): 8 patients
- response following oats challenge (PBMC [3]; three additional patients that responded to the peptide after barley challenge): did not respond
- response after previous oats challenge (PBMC [3]; three patients that responded after the combined grain challenge): no responses
